In this test the target is T1, BRD9 (Homo sapiens, UniProt Q9H8M2).
T1 sequence (Q9H8M2 1-597): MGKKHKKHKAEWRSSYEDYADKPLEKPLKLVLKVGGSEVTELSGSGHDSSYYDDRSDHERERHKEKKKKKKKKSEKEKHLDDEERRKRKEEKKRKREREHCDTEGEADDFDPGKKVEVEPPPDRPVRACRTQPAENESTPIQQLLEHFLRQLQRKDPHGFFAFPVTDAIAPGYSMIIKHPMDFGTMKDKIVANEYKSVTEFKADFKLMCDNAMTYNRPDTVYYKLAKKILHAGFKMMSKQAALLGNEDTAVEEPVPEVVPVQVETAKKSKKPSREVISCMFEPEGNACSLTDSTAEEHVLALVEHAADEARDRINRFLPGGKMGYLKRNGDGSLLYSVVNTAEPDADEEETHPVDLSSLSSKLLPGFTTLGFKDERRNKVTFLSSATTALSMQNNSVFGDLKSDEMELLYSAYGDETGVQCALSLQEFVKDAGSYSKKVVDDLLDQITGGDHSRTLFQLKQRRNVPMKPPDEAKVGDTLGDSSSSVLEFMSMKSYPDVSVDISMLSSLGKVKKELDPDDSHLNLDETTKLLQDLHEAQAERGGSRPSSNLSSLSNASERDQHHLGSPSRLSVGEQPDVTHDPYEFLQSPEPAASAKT
In words: Degradation of BRD9 (IF), immunofluorescence in MV4-11 cells, 24 hours (Assay Protocol 2). The test is classed as cell-based. Details: A suspension of MV4-11 cells (ATCC CRL-9591) was prepared; host or cells: MV4-11. The conditions noted are these: BRD9 degradation; for DC50: read-out: DC50. On the procedure: Assay Protocol 2—Degradation of BRD9 (IF)
A suspension of MV4-11 cells (ATCC CRL-9591) was prepared in phenol red-free assay media (IMDM Thermo Scientific 21056023+10% FBS ATCC 302025) and cells were seeded at 20,000 cells per well (45 μL) in sterile black poly-d-lysine coated 384 well plates (Greiner 781948). Compounds were prepared at 1000× final concentration in DMSO, diluted 1:100 in assay media, and 5 μL compound was added to each well of the cell plate. Cells were incubated for 24 hours at 37° C. with 5% CO2. All the following incubations for immunofluorescence staining were at room temperature. 15 μL of 16% PFA was added to each well (3.7% final concentration) and the cells were fixed for 15 min then washed twice with DPBS. Cells were permeabilised with 0.1% Triton X-100 for 10 min, Triton X-100 was removed, then blocked with 1% BSA in DPBS for 1 hour. Cells were stained with 25 μL anti-BRD9 E4Q3F antibody (CST 48306) diluted 1:25600 in 1% BSA in DPBS for 2-3 hours. Wels were washed twice with DPBS then incubated with 25 μL of 1% BSA containing a 1:1000 dilution of Anti-rabbit Alexa Fluor™ 647 secondary antibody (Thero Scientific A21244) and 1 μg/mL Hoechst nuclear counter stain (Abcam ab228551) for 1 hour. Wells were washed twice with DPBS prior to imaging on a Perkin Elmer Operetta CLS with 10× air lens. Images were processed using Harmony High-Content Imaging and Analysis Software (Perkin Elmer) and the mean contrast ratio of Alexa Fluor™ 647 in central nuclei was used to quantify BRD9 protein levels. Data was further analysed using Dotmatics software and % BRD9 remaining was calculated by normalisation to average data from high and low control wells (cells treated with DMSO or 100 nM CFT-8634 respectively).

[1] abbreviates: MV4-11, Assay protocol 2, read-out: Dmax.

Each structure is given as a SMILES string. Like-named read-outs stand apart in the source and are kept apart here.

As for `COc1cc(-c2cn(C)c(=O)c(C)c2C)cc(OC)c1CN1CCN(C(=O)CCCCOc2ccc3c(c2)C(C)N(C(=O)/C(C#N)=C/c2nccs2)CC3)CC1` (mixture of isomers) [Compound B84, (E/Z)-2-(7-((5-(4-(2,6-dimethoxy-4-(1,4,5-trimethyl-6-oxo-1,6-dihydropyridin-3-yl)benzyl)piperazin-1-yl)-5-oxopentyl)oxy)-1-methyl-1,2,3,4-tetrahydroisoquinoline-2-carbonyl)-3-(thiazol-2-yl)acrylonitrile], under “Assay protocol 2”, the DC50 – broadly, the midpoint of the concentration-degradation curve – is 1.25 to 10 nM. In addition, under setting [1], the Dmax (as a rule, the greatest extent of degradation seen) was more than 75%.

For `COc1cc(-c2cn(C)c(=O)c(C)c2C)cc(OC)c1CN1CCC(COc2cccc3c2CCN(C(=O)/C(C#N)=C/C(C)(C)C)C3C)CC1` (mixture of isomers) [Compound B86, (E/Z)-2-(5-((1-(2,6-dimethoxy-4-(1,4,5-trimethyl-6-oxo-1,6-dihydropyridin-3-yl)benzyl)piperidin-4-yl)methoxy)-1-methyl-1,2,3,4-tetrahydroisoquinoline-2-carbonyl)-4,4-dimethylpent-2-enenitrile], the DC50 (Assay protocol 2) lay within 10 to 25 nM. Moreover, the Dmax under setting [1] lay within 40 to 70%.

In the case of `COc1cc(-c2cn(C)c(=O)c(C)c2C)cc(OC)c1C(=O)N1CCC(Oc2cccc3c2CCN(C(=O)/C(C#N)=C/c2cccc(Br)n2)C3C)CC1` (mixture of isomers) [Compound B88, (E/Z)-3-(6-bromopyridin-2-yl)-2-(5-((1-(2,6-dimethoxy-4-(1,4,5-trimethyl-6-oxo-1,6-dihydropyridin-3-yl)benzoyl)piperidin-4-yl)oxy)-1-methyl-1,2,3,4-tetrahydroisoquinoline-2-carbonyl)acrylonitrile], under “Assay protocol 2”, the DC50 fell in the range of 10 to 25 nM. Besides, the greatest degradation seen (Dmax) under setting [1] is 40 to 70%.

Regarding `COc1cc(-c2cn(C)c(=O)c(C)c2C)cc(OC)c1CN1CCN(Cc2cccc3c2CCN(C(=O)/C(C#N)=C/c2cnc(C)cn2)C3C)CC1` (mixture of isomers) [Compound B89, (E/Z)-2-(5-((4-(2,6-dimethoxy-4-(1,4,5-trimethyl-6-oxo-1,6-dihydropyridin-3-yl)benzyl)piperazin-1-yl)methyl)-1-methyl-1,2,3,4-tetrahydroisoquinoline-2-carbonyl)-3-(5-methylpyrazin-2-yl)acrylonitrile], the DC50 (Assay protocol 2) was less than 1.25 nM. Further, the Dmax under setting [1] was more than 75%.

On to `COc1cc(-c2cn(C)c(=O)c(C)c2C)cc(OC)c1CN1CCN(Cc2cccc3c2CCN(C(=O)/C(C#N)=C/C2CCCC2)C3C)CC1` (mixture of isomers) [Compound B90, (E/Z)-3-cyclopentyl-2-(5-((4-(2,6-dimethoxy-4-(1,4,5-trimethyl-6-oxo-1,6-dihydropyridin-3-yl)benzyl)piperazin-1-yl)methyl)-1-methyl-1,2,3,4-tetrahydroisoquinoline-2-carbonyl)acrylonitrile], for which the DC50 (Assay protocol 2) was 10 to 25 nM. Besides, the Dmax under setting [1] was in the range of 40 to 70%.

Consider `COc1cc(-c2cn(C)c(=O)c(C)c2C)cc(OC)c1CN1CCN(Cc2cccc3c2CCN(C(=O)/C(C#N)=C/c2cccc(F)c2F)C3C)CC1` (mixture of isomers) [Compound B91, (E/Z)-3-(2,3-difluorophenyl)-2-(5-((4-(2,6-dimethoxy-4-(1,4,5-trimethyl-6-oxo-1,6-dihydropyridin-3-yl)benzyl)piperazin-1-yl)methyl)-1-methyl-1,2,3,4-tetrahydroisoquinoline-2-carbonyl)acrylonitrile], for which, under “Assay protocol 2”, the DC50 was 1.25 to 10 nM. Also, the Dmax under setting [1] fell in the range of 40 to 70%.

With `COc1cc(/C=C(\C#N)C(=O)N2CCc3c(CN4CCN(Cc5c(OC)cc(-c6cn(C)c(=O)c(C)c6C)cc5OC)CC4)cccc3C2C)c(F)cn1` (mixture of isomers) [Compound B92, (E/Z)-2-(5-((4-(2,6-dimethoxy-4-(1,4,5-trimethyl-6-oxo-1,6-dihydropyridin-3-yl)benzyl)piperazin-1-yl)methyl)-1-methyl-1,2,3,4-tetrahydroisoquinoline-2-carbonyl)-3-(5-fluoro-2-methoxypyridin-4-yl)acrylonitrile], the DC50 (Assay protocol 2) was less than 1.25 nM. In addition, the Dmax under setting [1] lay in the range of 40 to 70%.

As for `COc1ccc(F)c(/C=C(\C#N)C(=O)N2CCc3c(CN4CCN(Cc5c(OC)cc(-c6cn(C)c(=O)c(C)c6C)cc5OC)CC4)cccc3C2C)c1` (mixture of isomers) [Compound B93, (E/Z)-2-(5-((4-(2,6-dimethoxy-4-(1,4,5-trimethyl-6-oxo-1,6-dihydropyridin-3-yl)benzyl)piperazin-1-yl)methyl)-1-methyl-1,2,3,4-tetrahydroisoquinoline-2-carbonyl)-3-(2-fluoro-5-methoxyphenyl)acrylonitrile], for the setting “Assay protocol 2”, the DC50 is 1.25 to 10 nM. Also, the Dmax under setting [1] is 40 to 70%.

On to `COc1cc(-c2cn(C)c(=O)c(C)c2C)cc(OC)c1CN1CCC(COc2cccc3c2CCN(C(=O)/C(C#N)=C/c2cccc(Br)n2)C3C)CC1` (mixture of isomers) [Compound B95, (E/Z)-3-(6-bromopyridin-2-yl)-2-(5-((1-(2,6-dimethoxy-4-(1,4,5-trimethyl-6-oxo-1,6-dihydropyridin-3-yl)benzyl)piperidin-4-yl)methoxy)-1-methyl-1,2,3,4-tetrahydroisoquinoline-2-carbonyl)acrylonitrile], for which the DC50 (Assay protocol 2) was less than 1.25 nM. Further, the Dmax under setting [1] was in the range of 70 to 75%.

Regarding `COc1cc(-c2cn(C)c(=O)c3[nH]ncc23)cc(OC)c1CN1CCN(Cc2cccc3c2CCN(C(=O)/C(C#N)=C/c2cccc(Br)n2)C3C)CC1` (mixture of isomers) [Compound B96, (E/Z)-3-(6-bromopyridin-2-yl)-2-(5-((4-(2,6-dimethoxy-4-(6-methyl-7-oxo-6,7-dihydro-1H-pyrazolo[3,4-c]pyridin-4-yl)benzyl)piperazin-1-yl)methyl)-1-methyl-1,2,3,4-tetrahydroisoquinoline-2-carbonyl)acrylonitrile], the DC50 (Assay protocol 2) fell in the range of 1.25 to 10 nM. Moreover, the maximal degradation (Dmax) under setting [1] fell in the range of 40 to 70%.

On to `COc1cc(-c2cn(C)c(=O)c(C)c2C)cc(OC)c1CN1CCN(Cc2cccc3c2CCN(C(=O)/C(C#N)=C/C(C)(C)C)C3C)C(C)(C)C1` (mixture of isomers) [Compound B98, (E/Z)-2-(5-((4-(2,6-dimethoxy-4-(1,4,5-trimethyl-6-oxo-1,6-dihydropyridin-3-yl)benzyl)-2,2-dimethylpiperazin-1-yl)methyl)-1-methyl-1,2,3,4-tetrahydroisoquinoline-2-carbonyl)-4,4-dimethylpent-2-enenitrile], for which, under “Assay protocol 2”, the DC50 was 10 to 25 nM. Besides, under setting [1], the Dmax was more than 75%.

Consider `COc1cc(-c2cn(C)c(=O)c(C)c2C)cc(OC)c1CN1CCN(Cc2cccc3c2CCN(C(=O)C(C#N)=Cc2cccc(Br)n2)C3C)C(C)(C)C1` (mixture of isomers) [Compound B99, (E/Z)-3-(6-bromopyridin-2-yl)-2-(5-((4-(2,6-dimethoxy-4-(1,4,5-trimethyl-6-oxo-1,6-dihydropyridin-3-yl)benzyl)-2,2-dimethylpiperazin-1-yl)methyl)-1-methyl-1,2,3,4-tetrahydroisoquinoline-2-carbonyl)acrylonitrile], for which, under “Assay protocol 2”, the Dmax result was “+ (+ = >40% and <70%)”; the DC50 fell in the range of 25 to 1000 nM.

With `COc1cc(-c2cn(C)c(=O)c(C)c2C)cc(OC)c1CN1C[C@H](C)N(Cc2cccc3c2CCN(C(=O)/C(C#N)=C/C(C)(C)C)C3C)[C@@H](C)C1` (mixture of isomers) [Compound B100, (E/Z)-2-(5-(((2S,6S)-4-(2,6-dimethoxy-4-(1,4,5-trimethyl-6-oxo-1,6-dihydropyridin-3-yl)benzyl)-2,6-dimethylpiperazin-1-yl)methyl)-1-methyl-1,2,3,4-tetrahydroisoquinoline-2-carbonyl)-4,4-dimethylpent-2-enenitrile], the 50% degradation concentration (DC50) (Assay protocol 2) is 25 to 1000 nM. Also, the Dmax under setting [1] was 70 to 75%.

The values above are taken from patent publication US20260092061A1, “COMPOUNDS FOR TARGETED PROTEIN DEGRADATION” (Amphista Therapeutics Limited, priority 2022, published 2026).
